These results are taken from ChEMBL document CHEMBL5154703, “Improved cyclobutyl nabilone analogs as potent CB1 receptor agonists” (Eur J Med Chem, 2022).

The source made the active and inactive calls. The calls are words filed in the database; no cut-off is given here.

Test [1] has as its system Rattus norvegicus. The experiment in a line: Antinociceptive activity against female Sprague-Dawley rat model of thermal-induced nociception at 0.01 to 10 mg/kg measured after 30 to 360 mins by tail flick test. Type of test: functional. Conditions: dose 0.01-10 mg/kg, time 30-360 min. (Thermal pain tests record how soon the animal reacts.)
Test [2] relates to Rattus norvegicus. The experiment in a line: Hypothermic effect in female Sprague-Dawley rat model assessed as reduction in body temperature at 10 to 30 mg/kg after 30 to 360 mins. Type of test: functional. As to conditions: dose 10-30 mg/kg; time 30-360 min.
The target of test [3] is T1, Cannabinoid receptor 1 (Rattus norvegicus, UniProt P20272). Put plainly: Displacement of [3H]-CP-55,940 from CB1R in rat brain membranes measured by radioligand based competition binding assay. The format is cell membranes, Membrane. In general terms: Displacement assays read how much labelled ligand stays bound in the presence of the test substance.
T1 sequence (P20272 whole entry): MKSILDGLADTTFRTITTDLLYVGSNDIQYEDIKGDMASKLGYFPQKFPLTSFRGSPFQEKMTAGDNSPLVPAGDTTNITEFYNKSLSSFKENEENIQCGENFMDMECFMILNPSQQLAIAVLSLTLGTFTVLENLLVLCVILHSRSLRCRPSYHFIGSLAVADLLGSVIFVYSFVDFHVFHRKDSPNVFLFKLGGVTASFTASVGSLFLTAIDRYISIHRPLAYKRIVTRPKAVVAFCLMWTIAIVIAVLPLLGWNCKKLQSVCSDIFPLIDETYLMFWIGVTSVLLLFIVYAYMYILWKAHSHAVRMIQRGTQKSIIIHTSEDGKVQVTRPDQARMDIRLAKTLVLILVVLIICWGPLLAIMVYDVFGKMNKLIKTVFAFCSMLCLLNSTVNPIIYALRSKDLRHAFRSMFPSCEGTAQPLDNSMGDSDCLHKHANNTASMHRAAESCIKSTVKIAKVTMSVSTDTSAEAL
The subject of test [4] is Rattus norvegicus. The experiment in a line: Hypothermic effect in female Sprague-Dawley rat model assessed as reduction in body temperature at 0.01 to 10 mg/kg measured as ED50 after 30 to 360 mins. The format is functional. As to conditions: dose 0.01-10 mg/kg, time 30-360 min.
In test [5] the target is T1, Cannabinoid receptor 1. The experiment in a line: Agonist activity at rat CB1 receptor expressed in HEK293 cells assessed as inhibition of forskolin-induced cAMP accumulation measured for 60 mins by Lance Ultra cAMP assay. Type of test: functional, cell-based. On the technique in general: Cyclic AMP is a second messenger, typically raised through Gs and lowered through Gi signalling.

Test [6] concerns the target Cannabinoid receptor 1 (Rattus norvegicus) (UniProt P20272). Put plainly: Agonist activity at rat CB1 receptor expressed in HEK293 cells assessed as inhibition of forskolin-induced cAMP accumulation measured for 60 mins by Lance Ultra cAMP assay relative to control. Conditions: filed as agonist. Type of test: functional, cell-based.
The target of test [7] is T2, Cannabinoid receptor 1 (Homo sapiens, UniProt P21554). Put plainly: Agonist activity at N-terminal 3HA-tagged human CB1 receptor expressed in CHO cells assessed as inhibition of forskolin-induced cAMP accumulation measured for 30 mins by FRET assay. The format is functional, cell-based.
T2 sequence (P21554 whole entry): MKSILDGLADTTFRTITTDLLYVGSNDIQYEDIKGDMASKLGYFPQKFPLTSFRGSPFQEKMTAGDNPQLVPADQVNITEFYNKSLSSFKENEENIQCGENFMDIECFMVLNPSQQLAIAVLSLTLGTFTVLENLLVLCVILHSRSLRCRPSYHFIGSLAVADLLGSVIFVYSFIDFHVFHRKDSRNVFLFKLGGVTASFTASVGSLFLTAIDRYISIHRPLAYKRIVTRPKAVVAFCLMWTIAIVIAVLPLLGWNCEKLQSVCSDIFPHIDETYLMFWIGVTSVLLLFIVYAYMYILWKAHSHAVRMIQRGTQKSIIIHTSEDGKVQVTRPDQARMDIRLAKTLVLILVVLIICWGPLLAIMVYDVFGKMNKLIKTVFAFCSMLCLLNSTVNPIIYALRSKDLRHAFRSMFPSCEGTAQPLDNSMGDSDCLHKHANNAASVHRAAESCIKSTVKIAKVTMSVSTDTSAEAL
Test [8] deals with T2, Cannabinoid receptor 1. Put plainly: Agonist activity at N-terminal 3HA-tagged human CB1 receptor expressed in CHO cells assessed as inhibition of forskolin-induced cAMP accumulation measured for 30 mins by FRET assay relative to control. The format is functional, cell-based. Conditions: filed as agonist.
Test [9] deals with T2, Cannabinoid receptor 1. Put plainly: Agonist activity at human CB1 receptor expressed in CHO-K1 cells assessed as assessed as induction of beta-arrestin 2 recruitment measured for 90 mins by PathHunter assay. Type of test: functional, cell-based.
The target of test [10] is T2, Cannabinoid receptor 1. Put plainly: Agonist activity at human CB1 receptor expressed in CHO-K1 cells assessed as assessed as induction of beta-arrestin 2 recruitment measured for 90 mins by PathHunter assay relative to control. As to conditions: filed as agonist. Type of test: functional, cell-based.
Test [11] concerns Rattus norvegicus. The experiment in a line: Hypothermic effect in female Sprague-Dawley rat model assessed as reduction in body temperature at 0.3 to 1 mg/kg after 90 mins. Type of test: functional, organism-based. As to conditions: dose 0.3-1 mg/kg.
In test [12] the test system is Rattus norvegicus. The experiment in a line: Antinociceptive activity against female Sprague-Dawley rat model of thermal-induced nociception at 0.3 to 1 mg/kg assessed as increase in tail flick latency measured after 30 to 360 mins by tail flick test. Type of test: functional, organism-based. Conditions: dose 0.3-1 mg/kg, time 30-360 min.
Test [13] concerns Rattus norvegicus. Put plainly: Hypothermic effect in female Sprague-Dawley rat model assessed as reduction in body temperature at 0.01 to 10 mg/kg measured after 30 to 360 mins. Conditions: dose 0.01-10 mg/kg; time 30-360 min. The format is functional.

Sequence of Cannabinoid receptor 1 (Rattus norvegicus) (P20272 whole entry): as the sequence (P20272 whole entry) above

By ED50 is commonly meant the dose that gives a 50% effect, or the effect in half of the subjects. On to `CCCCCc1cc(O)c2c(c1)OC(C)(C)[C@@H]1CCC(C)=C[C@@H]21` [DRONABINOL], for which the ED50 in the test on Rattus norvegicus [1] is 1.3 mg/kg. Also, in the test on Rattus norvegicus [2], the T is 2.8 °C.
What is called Ki is the dissociation constant of the complex between target and ligand, obtained from inhibition or displacement. At Cannabinoid receptor 1 [3], `CC1(C)Oc2cc(C3(CCCBr)CCC3)cc(O)c2[C@@H]2C[C@H](O)CC[C@H]21` returned an inhibition constant Ki of 8.75 nM.
Same read-out and setting: as for `CC1(C)Oc2cc(C3(CCCCN=[N+]=[N-])CCC3)cc(O)c2[C@@H]2C[C@@H](O)CC[C@H]21`, the figure is 8.2 nM.
Take `CC1(C)Oc2cc(C3(CCCC#N)CCC3)cc(O)c2[C@@H]2C[C@H](O)CC[C@H]21`: the inhibition constant Ki on Cannabinoid receptor 1 [3] came to 4.6 nM.
Turning to `CC1(C)Oc2cc(C3(CCCCN=C=S)CCC3)cc(O)c2[C@@H]2CC(=O)CC[C@H]21`, the inhibition constant Ki at Cannabinoid receptor 1 [3] was 8.2 nM.
For the compound `CC1(C)Oc2cc(C3(CCCCC#N)CCC3)cc(O)c2[C@@H]2CC(=O)CC[C@H]21`, the affinity at Cannabinoid receptor 1 [3] corresponds to a Ki of 3.4 nM.
The same measure, in the same setting: as for `CC1(C)Oc2cc(C3(CCCCCCBr)CCC3)cc(O)c2[C@@H]2C[C@@H](O)CC[C@H]21`, the figure is 1 nM; as for `CC1(C)Oc2cc(C3(CCCCBr)CCC3)cc(O)c2[C@@H]2C[C@H](O)CC[C@H]21`, 1.2 nM.
`CCCCCCC(C)(C)c1cc(O)c2c(c1)OC(C)(C)C1CCC(=O)CC21` (stereo not given) [NABILONE]: the ED50 in the test on Rattus norvegicus [4] amounted to 0.38 mg/kg.
`CC1(C)Oc2cc(C3(CCCCCN=[N+]=[N-])CCC3)cc(O)c2[C@@H]2C[C@@H](O)CC[C@H]21`: affinity at Cannabinoid receptor 1 [3] was put at a Ki of 0.92 nM.
One may read the EC50 as the midpoint of the concentration-response curve. The term Emax denotes the greatest response seen or fitted, relative to the assay's reference. On Cannabinoid receptor 1 [3], `CC1(C)Oc2cc(C3(CCCCCC#N)CCC3)cc(O)c2[C@@H]2CC(=O)CC[C@H]21` had a Ki of 0.55 nM. Besides, the figures for the EC50 at Cannabinoid receptor 1 [5], on Cannabinoid receptor 1 [7] and on Cannabinoid receptor 1 [9] were 8.6 nM, 1.4 nM and 7.5 nM, respectively. Besides, the Emax in test [6] was found to be 126%; at Cannabinoid receptor 1 [8], 94%; at Cannabinoid receptor 1 [10] it was 93%. In addition, the ED50 in the test with Rattus norvegicus [1] amounted to 0.14 mg/kg; in the test with Rattus norvegicus [4] it was 0.16 mg/kg. The outcome in the test on Rattus norvegicus [11] and with Rattus norvegicus [12] was Active. The T in the test on Rattus norvegicus [13] was found to be 6 °C.
Turning to `CC1(C)Oc2cc(C3(CCCCCCBr)CCC3)cc(O)c2[C@@H]2C[C@H](O)CC[C@H]21`, at Cannabinoid receptor 1 [3], the affinity, expressed as Ki, was 0.38 nM.
Same read-out and setting: the result for `CC1(C)Oc2cc(C3(CCCCN4CCOCC4)CCC3)cc(O)c2[C@@H]2CC(=O)CC[C@H]21` reads 4 nM; that for `CC1(C)Oc2cc(C3(CCCCCN=[N+]=[N-])CCC3)cc(O)c2[C@@H]2CC(=O)CC[C@H]21`, 0.66 nM.
Turning to `CC1(C)Oc2cc(C3(CCCCCC#N)CCC3)cc(O)c2[C@@H]2C[C@H](O)CC[C@H]21`, at Cannabinoid receptor 1 [3], the Ki was 0.69 nM. The EC50 on Cannabinoid receptor 1 [5] turned out to be 3.9 nM. Besides, the Emax in test [6] stood at 108%.
As to `CC1(C)Oc2cc(C3(CCCCN=[N+]=[N-])CCC3)cc(O)c2[C@@H]2C[C@H](O)CC[C@H]21`, affinity on Cannabinoid receptor 1 [3] was put at a Ki of 0.57 nM.
The same measure, in the same setting: the result for `CC1(C)Oc2cc(C3(CCCCN4CCOCC4)CCC3)cc(O)c2[C@@H]2C[C@H](O)CC[C@H]21` reads 1.1 nM; that for `CC1(C)Oc2cc(C3(CCCCCCBr)CCC3)cc(O)c2[C@@H]2CC(=O)CC[C@H]21`, 0.46 nM; that for `CC1(C)Oc2cc(C3(CCCBr)CCC3)cc(O)c2[C@@H]2CC(=O)CC[C@H]21`, 45.7 nM.
Same read-out and setting: as for `CC1(C)Oc2cc(C3(CCCCN=C=S)CCC3)cc(O)c2[C@@H]2C[C@H](O)CC[C@H]21`, the figure is 1.45 nM; as for `CC1(C)Oc2cc(C3(CCCCCCN4CCOCC4)CCC3)cc(O)c2[C@@H]2C[C@H](O)CC[C@H]21`, 43.9 nM; as for `CC1(C)Oc2cc(C3(CCCCBr)CCC3)cc(O)c2[C@@H]2CC(=O)CC[C@H]21`, 18 nM.
Still for that read-out and setting: the result for `CC1(C)Oc2cc(C3(CCCCCN=C=S)CCC3)cc(O)c2[C@@H]2CC(=O)CC[C@H]21` reads 4.91 nM; that for `CC1(C)Oc2cc(C3(CCCCBr)CCC3)cc(O)c2[C@@H]2C[C@@H](O)CC[C@H]21`, 1.11 nM; that for `CC1(C)Oc2cc(C3(CCCCCN4CCOCC4)CCC3)cc(O)c2[C@@H]2CC(=O)CC[C@H]21`, 1.9 nM.
As to `CC1(C)Oc2cc(C3(CCCCC#N)CCC3)cc(O)c2[C@@H]2C[C@H](O)CC[C@H]21`, on Cannabinoid receptor 1 [3], the Ki was 0.55 nM.
`CC1(C)Oc2cc(C3(CCCCCC#N)CCC3)cc(O)c2[C@@H]2C[C@@H](O)CC[C@H]21` displayed a Ki at Cannabinoid receptor 1 [3] of 0.61 nM. In addition, at Cannabinoid receptor 1 [5], the EC50 is 2 nM. In addition, the Emax in test [6] stood at 97%.
`CC1(C)Oc2cc(C3(CCCCN=[N+]=[N-])CCC3)cc(O)c2[C@@H]2CC(=O)CC[C@H]21` showed a Ki on Cannabinoid receptor 1 [3] of 11 nM.
The same measure, in the same setting: the result for `CC1(C)Oc2cc(C3(CCCCC#N)CCC3)cc(O)c2[C@@H]2C[C@@H](O)CC[C@H]21` reads 1.9 nM.
